{"source": "ChEMBL document CHEMBL4038282", "about": "(Eur J Med Chem, 2017)", "key": {"MDA-MB-231 [1]": {"tested_on": "MDA-MB-231", "assay": "Antiproliferative activity against human MDA-MB-231 cells up to 72 hrs by MTT assay", "type": "functional, cell-based", "settings": "MDA-MB-231, 72 h"}, "MDA-MB-231 [2]": {"tested_on": "MDA-MB-231", "assay": "Potency index, ratio of curcumin IC50 to compound IC50 for human MDA-MB-231 cells", "type": "functional"}, "HCT-116": {"tested_on": "HCT-116", "assay": "Antiproliferative activity against human HCT116 cells up to 72 hrs by MTT assay", "type": "functional, cell-based", "settings": "HCT-116, 72 h"}, "PC-3": {"tested_on": "PC-3", "assay": "Antiproliferative activity against human PC3 cells up to 72 hrs by MTT assay", "type": "functional, cell-based", "settings": "PC-3, 72 h"}, "MDA-MB-468 [3]": {"tested_on": "MDA-MB-468", "assay": "Antiproliferative activity against doxorubicin-resistant human MDA-MB-468 cells after 24 hrs by MTT assay", "type": "functional, cell-based", "settings": "MDA-MB-468, 24 h"}, "MDA-MB-468 [4]": {"tested_on": "MDA-MB-468", "assay": "Potency index, ratio of curcumin IC50 to compound IC50 for doxorubicin-resistant human MDA-MB-468 cells", "type": "functional"}, "Mus musculus [5]": {"tested_on": "Mus musculus", "assay": "Acute-toxicity in nu/nu mouse assessed as changes in body weight at 500 mg/kg, po administered once daily for 5 days measured for 21 days", "type": "organism-based", "settings": "in vivo, 504 h"}, "Mus musculus [6]": {"tested_on": "Mus musculus", "assay": "Acute-toxicity in nu/nu mouse assessed as behavioral changes at 500 mg/kg, po administered once daily for 5 days measured for 21 days", "type": "organism-based", "settings": "in vivo, 504 h"}}}
{"molecule": "CC(CO)(CO)C(=O)Oc1ccc(/C=C/C(=O)C(C)(C)C(=O)/C=C/c2ccc(OC(=O)C(C)(CO)CO)cc2)cc1", "values": [{"measurement": "IC50", "setting": "MDA-MB-231 [1]", "value": 2.98, "unit": "µM"}, {"measurement": "Ratio IC50", "setting": "MDA-MB-231 [2]", "value": "2.4 - 12.2"}, {"measurement": "IC50", "setting": "HCT-116", "value": 2.63, "unit": "µM"}, {"measurement": "IC50", "setting": "PC-3", "value": 3.62, "unit": "µM"}]}
{"molecule": "COc1ccc(/C=C/C(O)=C/C(=O)/C=C/c2ccc(OC)c(OC(=O)C(C)(CO)CO)c2)cc1O", "values": [{"measurement": "IC50", "setting": "MDA-MB-231 [1]", "value": 2.29, "unit": "µM"}, {"measurement": "Ratio IC50", "setting": "MDA-MB-231 [2]", "value": "2.4 - 12.2"}, {"measurement": "IC50", "setting": "HCT-116", "value": 1.95, "unit": "µM"}, {"measurement": "IC50", "setting": "PC-3", "value": 2.32, "unit": "µM"}]}
{"molecule": "COc1cc(/C=C/C(=O)C(Cc2ccccc2)(Cc2ccccc2)C(=O)/C=C/c2ccc(OC(=O)C(C)(CO)CO)c(OC)c2)ccc1OC(=O)C(C)(CO)CO", "values": [{"measurement": "IC50", "setting": "MDA-MB-231 [1]", "value": 2.11, "unit": "µM"}, {"measurement": "Ratio IC50", "setting": "MDA-MB-231 [2]", "value": "2.4 - 12.2"}, {"measurement": "IC50", "setting": "HCT-116", "value": 3.88, "unit": "µM"}, {"measurement": "IC50", "setting": "PC-3", "value": 7.28, "unit": "µM"}]}
{"molecule": "COc1cc(/C=C/C(O)=C/C(=O)/C=C/c2ccc(OC(=O)C(C)(CO)CO)c(OC)c2)ccc1O", "values": [{"measurement": "IC50", "setting": "MDA-MB-231 [1]", "value": 5.94, "unit": "µM"}, {"measurement": "Ratio IC50", "setting": "MDA-MB-231 [2]", "value": "2.4 - 12.2"}, {"measurement": "IC50", "setting": "HCT-116", "value": 15.5, "unit": "µM"}, {"measurement": "IC50", "setting": "PC-3", "value": 17.4, "unit": "µM"}]}
{"molecule": "COc1cc(/C=C/C(=O)C(C)(C)C(=O)/C=C/c2ccc(OC(=O)C(C)(CO)CO)c(OC)c2)ccc1OC(=O)C(C)(CO)CO", "values": [{"measurement": "IC50", "setting": "MDA-MB-231 [1]", "value": 1.98, "unit": "µM"}, {"measurement": "Ratio IC50", "setting": "MDA-MB-231 [2]", "value": "2.4 - 12.2"}, {"measurement": "IC50", "setting": "HCT-116", "value": 1.65, "unit": "µM"}, {"measurement": "IC50", "setting": "PC-3", "value": 1.76, "unit": "µM"}, {"measurement": "IC50", "setting": "MDA-MB-468 [3]", "value": 5.71, "unit": "µM"}, {"measurement": "Ratio IC50", "setting": "MDA-MB-468 [4]", "value": 10}, {"measurement": "Activity", "setting": "Mus musculus [5]", "value": "Non-Toxic"}, {"measurement": "Activity", "setting": "Mus musculus [6]", "value": "Non-Toxic"}]}
{"molecule": "COc1ccc(/C=C/C(=O)/C=C(O)/C=C/c2ccc(OC)c(OC(=O)C(C)(CO)CO)c2)cc1OC(=O)C(C)(CO)CO", "values": [{"measurement": "IC50", "setting": "MDA-MB-231 [1]", "value": 4.61, "unit": "µM"}, {"measurement": "Ratio IC50", "setting": "MDA-MB-231 [2]", "value": 3.5}, {"measurement": "IC50", "setting": "HCT-116", "value": 2.79, "unit": "µM"}, {"measurement": "IC50", "setting": "PC-3", "value": 4.74, "unit": "µM"}]}
{"molecule": "CCC(CC)(C(=O)/C=C/c1ccc(OC(=O)C(C)(CO)CO)c(OC)c1)C(=O)/C=C/c1ccc(OC(=O)C(C)(CO)CO)c(OC)c1", "values": [{"measurement": "IC50", "setting": "MDA-MB-231 [1]", "value": 1.78, "unit": "µM"}, {"measurement": "Ratio IC50", "setting": "MDA-MB-231 [2]", "value": "2.4 - 12.2"}, {"measurement": "IC50", "setting": "HCT-116", "value": 1.74, "unit": "µM"}, {"measurement": "IC50", "setting": "PC-3", "value": 2.16, "unit": "µM"}]}
{"molecule": "CCC(CO)(CO)C(=O)Oc1cc(/C=C/C(=O)/C=C(O)/C=C/c2ccc(OC)c(O)c2)ccc1OC", "values": [{"measurement": "IC50", "setting": "MDA-MB-231 [1]", "value": 3.85, "unit": "µM"}, {"measurement": "Ratio IC50", "setting": "MDA-MB-231 [2]", "value": "2.4 - 12.2"}, {"measurement": "IC50", "setting": "HCT-116", "value": 3.64, "unit": "µM"}, {"measurement": "IC50", "setting": "PC-3", "value": 7.03, "unit": "µM"}]}
{"molecule": "CCC(CO)(CO)C(=O)Oc1ccc(/C=C/C(=O)/C=C(O)/C=C/c2ccc(O)c(OC)c2)cc1OC", "values": [{"measurement": "IC50", "setting": "MDA-MB-231 [1]", "value": 4.66, "unit": "µM"}, {"measurement": "Ratio IC50", "setting": "MDA-MB-231 [2]", "value": "2.4 - 12.2"}, {"measurement": "IC50", "setting": "HCT-116", "value": 11.4, "unit": "µM"}, {"measurement": "IC50", "setting": "PC-3", "value": 12.5, "unit": "µM"}]}
